Measured values as given in patent publication US9538754B2, “Combinations of pyrimethanil and monoterpenes” (Janssen Pharmaceutica NV, priority 2010, dated 2017).

Columns and labels:
Assay in all cases: Poison Plate Assay
Format in all cases: cell-based
[1] = system: Ulocladium atrum IMI 214669a; conditions: Alternaria atra, IMI214669A, 336 h, pyrimethanil (I) with β-thujaplicin (II-b), ppm total active ingredient, Glucose Agar, 27° C., growth evaluated after two weeks, read-out: MIC-values (minimum inhibitory concentration) in ppm
Method: (§1) • Name of component (I): pyrimethanil • Name of component (II): thymol (II-a) • β-thujaplicin (II-b) • Test models: Fungi: to each well of a 24-well microliter plate, 1000 μl of Glucose Agar (GA: 10 g glucose, 1.5 g K2HPO4, 2 g KH2PO4, 1 g (NH4)2SO4, 0.5 g MgSO4 and 12.5 g agar in 1 liter deionised water) containing the appropriate combination of the test compounds in one of the concentrations of a dose series is added. The nutrient medium is inoculated with the test fungi by adding a sporeimycelium suspension (10 μl) or a small piece of agar from the margin of an actively growing colony and incubated under dark at 27° C. with 70% relative humidity. […] In addition to this dose series, pyrimethanil single was also tested at 9.50-7.13-5.34-4.01-3.01-2.25-1.69-1.27-0.95-0.71-0.53-0.40 ppm in order to define a lower limit to its activity.
(§2) A. G. Nass (1957) “Some aspects of the notions additivity, synergism and antagonism in the simultaneous activity of two antibacterial agents in vitro” Arch. intern. Pharmaco-dynamie 109: 211-228; Steinberg, D. C. (2000) “Measuring synergy” cosmetics & Toiletries 115(11): 59-62; and Lada, A., A. N. Petrocci, H. A. Green, and J. J. Merianos (1977) “Antimicrobial composition” U.S. Pat. No. 4,061,750, 3 pp.):
(§3) [formula] wherein: • QA is the concentration of compound A in ppm, acting alone, which produced an end point (e.g. MIC), • Qa is the concentration of compound A in ppm, in the mixture, which produced an end point (e.g. MIC), • QB is the concentration of compound B in ppm, acting alone, which produced an end point (e.g. MIC), • Qb is the concentration of compound B in ppm, in the mixture, which produced an end point (e.g. MIC). When the Synergy Index is greater than 1.0, antagonism is indicated. When the SI is equal to 1.0, additivity is indicated.

[2] = system: Stachybotrys atra CBS328.37; conditions: CBS328, 336 h, pyrimethanil (I) with thymol (II-a), ppm total active ingredient, Glucose Agar, 27° C., growth evaluated after two weeks, read-out: MIC-values (minimum inhibitory concentration) in ppm
Method: as §1, §2, §3

[3] = system: Chaetomium globosum CEB1218.2; conditions: CEB1218.2, 336 h, pyrimethanil (I) with thymol (II-a), ppm total active ingredient, Glucose Agar, 27° C., growth evaluated after two weeks, read-out: MIC-values (minimum inhibitory concentration) in ppm
Method: as §1, §2, §3

Which results are given for `Cc1cc(C)nc(Nc2ccccc2)n1` [component (I), 4,6-dimethyl-N-phenyl-2-pyrimidinamine]?
MIC [1]: 23 µg/mL; MIC [2]: 127 µg/mL; MIC [3]: 400 µg/mL
